One block for each compound: values may come before it.
Molecular target: T1, FAAH (Rattus norvegicus, UniProt P97612)
T1 construct: Preparation of Rat Brain Membranes Preparations (FAAH Enzyme Solution); from tissue; host or cells: rat cerebrum (brain membrane preparation)
T1 sequence (P97612 1-579): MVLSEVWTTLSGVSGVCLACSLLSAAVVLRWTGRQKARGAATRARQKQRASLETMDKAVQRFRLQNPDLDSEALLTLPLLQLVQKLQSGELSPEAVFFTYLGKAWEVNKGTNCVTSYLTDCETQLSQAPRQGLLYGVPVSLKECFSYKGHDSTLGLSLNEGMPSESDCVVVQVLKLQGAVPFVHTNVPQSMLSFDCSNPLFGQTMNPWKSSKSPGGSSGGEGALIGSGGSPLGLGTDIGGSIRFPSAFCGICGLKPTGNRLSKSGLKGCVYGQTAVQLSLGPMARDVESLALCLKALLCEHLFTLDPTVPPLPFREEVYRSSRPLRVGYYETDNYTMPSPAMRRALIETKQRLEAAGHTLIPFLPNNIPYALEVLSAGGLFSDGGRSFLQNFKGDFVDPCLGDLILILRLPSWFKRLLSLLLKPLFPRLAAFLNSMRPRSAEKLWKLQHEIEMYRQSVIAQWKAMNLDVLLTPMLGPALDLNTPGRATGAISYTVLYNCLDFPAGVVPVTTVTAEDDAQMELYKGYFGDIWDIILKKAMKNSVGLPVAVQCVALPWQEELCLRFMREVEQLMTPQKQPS
Assay: Determination of FAAH inhibitory activity in rat (rat brain membrane preparations, [3H]-anandamide hydrolysis)
Type: biochemical
Conditions: rat brain membrane preparations; for inhibition at 0.1 µM: 100 nM test substance, read-out: FAAH Inhibition, Inhibition Rate at 100 nM; for IC50: test substance 0.1 nM to 1 μM, read-out: FAAH Inhibition IC50
In short: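 Rat cerebrum membranes (100 μg/mL protein) preincubated 10 min at 37 °C with compound (1% DMSO) in pH 7.6 Tris buffer with 1.5% BSA. Substrate 2 nM [3H]-anandamide plus 2 μM anandamide added for 10 min at 37 °C. [3H]-ethanolamine in the aqueous phase after chloroform/methanol extraction was scintillation counted; IC50 over 0.1 nM–1 μM.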

- inhibition at 0.1 µM: 112%
- IC50: 3 nM
Compound: CN(C)C(=O)n1c(=O)n(C)c2cnc(COc3cccc(OC(F)(F)F)c3)nc21 [Example 423]

- inhibition at 0.1 µM: 80%
- IC50: 26 nM
Compound: Cc1ccc(OCc2ncc3c(n2)n(C(=O)N2CCC2)c(=O)n3C)cc1 [Example 424]

- inhibition at 0.1 µM: 79%
- IC50: 12 nM
Compound: Cn1c(=O)n(C(=O)N2CCC2)c2nc(COc3ccccc3F)ncc21 [Example 425]

- inhibition at 0.1 µM: 84%
- IC50: 9 nM
Compound: Cn1c(=O)n(C(=O)N2CCC2)c2nc(COc3ccc(F)cc3)ncc21 [Example 426]

- inhibition at 0.1 µM: 92%
- IC50: 19 nM
Compound: Cn1c(=O)n(C(=O)N2CCC2)c2nc(COc3ccccc3Cl)ncc21 [Example 427]

- inhibition at 0.1 µM: 123%
- IC50: 10 nM
Compound: Cn1c(=O)n(C(=O)N2CCC2)c2nc(COc3ccc(Cl)cc3)ncc21 [Example 428]

- inhibition at 0.1 µM: 60%
- IC50: 94 nM
Compound: CN(C)C(=O)n1c(=O)n(C)c2cnc(COc3cccc(OC(F)F)c3)nc21 [Example 431]

- inhibition at 0.1 µM: 95%
- IC50: 8 nM
Compound: Cn1c(=O)n(C(=O)N2CCC2)c2nc(COc3ccc(C(F)(F)F)cc3)ncc21 [Example 434]

- inhibition at 0.1 µM: 94%
- IC50: 12 nM
Compound: Cn1c(=O)n(C(=O)N2CCC2)c2nc(COc3ccccc3OC(F)(F)F)ncc21 [Example 435]

- inhibition at 0.1 µM: 96%
- IC50: 11 nM
Compound: Cn1c(=O)n(C(=O)N2CCC2)c2cnc(COc3cccc(OC(F)F)c3)nc21 [Example 437]

- inhibition at 0.1 µM: 88%
- IC50: 21 nM
Compound: COCc1ncc2c(n1)n(C)c(=O)n2C(=O)N1CC(c2cccc(F)c2)C1 [Example 440, 7-{[3-(3-Fluorophenyl)azetidin-1-yl]carbonyl}-2-(methoxymethyl)-9-methyl-7,9-dihydro-8H-purine-8-one]

- inhibition at 0.1 µM: 74%
- IC50: 37 nM
Compound: COCc1ncc2c(n1)n(C)c(=O)n2C(=O)N1CC(c2ccccc2F)C1 [Example 441, 7-{[3-(2-Fluorophenyl)azetidin-1-yl]carbonyl}-2-(methoxymethyl)-9-methyl-7,9-dihydro-8H-purine-8-one]

- inhibition at 0.1 µM: 98%
- IC50: 7 nM
Compound: COCc1ncc2c(n1)n(C)c(=O)n2C(=O)N1CC(c2cccc(C(F)(F)F)c2)C1 [Example 443, 2-(Methoxymethyl)-9-methyl-7-({[3-(3-trifluoromethyl)phenyl]azetidin-1-yl}carbonyl)-7,9-dihydro-8H-purine-8-one]

- inhibition at 0.1 µM: 89%
- IC50: 6 nM
Compound: COCc1ncc2c(n1)n(C)c(=O)n2C(=O)N1CC(c2ccc(F)cc2F)C1 [Example 454, 7-{[3-(2,4-Difluorophenyl)azetidin-1-yl]carbonyl}-2-(methoxymethyl)-9-methyl-7,9-dihydro-8H-purine-8-one]

- inhibition at 0.1 µM: 108%
- IC50: 9 nM
Compound: COCc1ncc2c(n1)n(C)c(=O)n2C(=O)N1CC(c2cccc(OC)c2)C1 [Example 459, 2-(Methoxymethyl)-7-{[3-(3-methoxyphenyl)azetidin-1-yl]carbonyl}-9-methyl-7,9-dihydro-8H-purine-8-one]

- inhibition at 0.1 µM: 113%
- IC50: 10 nM
Compound: CCOCc1ncc2c(n1)n(C)c(=O)n2C(=O)N1CC(c2cccc(F)c2)C1 [Example 462, 2-(Ethoxymethyl)-7-{[3-(3-fluorophenyl)azetidin-1-yl]carbonyl}-9-methyl-7,9-dihydro-8H-purine-8-one]

- inhibition at 0.1 µM: 71%
- IC50: 54 nM
Compound: COCc1ncc2c(n1)n(C)c(=O)n2C(=O)N1CC[C@@H](Oc2ccccc2F)C1 [Example 474]

- inhibition at 0.1 µM: 46%
Compound: COCc1ncc2c(n1)n(C)c(=O)n2C(=O)N1CC[C@@H](Oc2cccc(C)c2)C1 [Example 475]

- inhibition at 0.1 µM: 88%
- IC50: 26 nM
Compound: COCc1ncc2c(n1)n(C)c(=O)n2C(=O)N1CC[C@H](Oc2ccccc2)C1 [Example 477]

- inhibition at 0.1 µM: 50%
- IC50: 101 nM
Compound: COCc1ncc2c(n1)n(C)c(=O)n2C(=O)N1CC(Oc2ccccc2F)C1 [Example 479, 7-{[3-(2-Fluorophenoxy)azetidin-1-yl]carbonyl}-2-(methoxymethyl)-9-methyl-7,9-dihydro-8H-purine-8-one]

- inhibition at 0.1 µM: 104%
- IC50: 10 nM
Compound: COCc1ncc2c(n1)n(C)c(=O)n2C(=O)N1CC[C@H](Oc2cccc(F)c2)C1 [Example 482, 7-{[(3S)-3-(3-Fluorophenoxy)pyrrolidin-1-yl]carbonyl}-2-(methoxymethyl)-9-methyl-7,9-dihydro-8H-purine-8-one]

- inhibition at 0.1 µM: 110%
- IC50: 10 nM
Compound: COCc1ncc2c(n1)n(C)c(=O)n2C(=O)N1CC[C@H](Oc2ccccc2F)C1 [Example 483, 7-{[(3S)-3-(2-Fluorophenoxy)pyrrolidin-1-yl]carbonyl}-2-(methoxymethyl)-9-methyl-7,9-dihydro-8H-purine-8-one]

More lines, now with the values behind:

Compound: CN(C)C(=O)n1c(=O)n(C)c2cnc(COc3cccc(C(F)(F)F)c3)nc21 [Example 422]
- inhibition at 0.1 µM: 88%
- IC50: 22 nM

Compound: CN(C)C(=O)n1c(=O)n(C)c2cnc(COc3ccccc3C(F)(F)F)nc21 [Example 429]
- inhibition at 0.1 µM: 84%
- IC50: 23 nM

Compound: CN(C)C(=O)n1c(=O)n(C)c2cnc(COc3ccccc3OC(F)(F)F)nc21 [Example 430]
- inhibition at 0.1 µM: 80%
- IC50: 24 nM

Compound: COCc1ncc2c(n1)n(C)c(=O)n2C(=O)N1CC(c2ccccc2)C1 [Example 438, 2-(methoxymethyl)-9-methyl-7-[(3-phenylazetidin-1-yl)carbonyl]-7,9-dihydro-8H-purine-8-one]
- inhibition at 0.1 µM: 86%
- IC50: 34 nM

Compound: COCc1ncc2c(n1)n(C)c(=O)n2C(=O)N1CC(c2ccc(F)cc2)C1 [Example 439, 7-{[3-(4-Fluorophenyl)azetidin-1-yl]carbonyl}-2-(methoxymethyl)-9-methyl-7,9-dihydro-8H-purine-8-one]
- inhibition at 0.1 µM: 104%
- IC50: 5 nM

Compound: COCc1ncc2c(n1)n(C)c(=O)n2C(=O)N1CC(c2ccccc2Cl)C1 [Example 453, 7-{[3-(2-Chlorophenyl)azetidin-1-yl]carbonyl}-2-(methoxymethyl)-9-methyl-7,9-dihydro-8H-purine-8-one]
- inhibition at 0.1 µM: 90%
- IC50: 12 nM

Compound: COCc1ncc2c(n1)n(C)c(=O)n2C(=O)N1CC(c2ccc(F)c(C)c2)C1 [Example 455, 7-{[3-(4-Fluoro-3-methylphenyl)azetidin-1-yl]carbonyl}-2-(methoxymethyl)-9-methyl-7,9-dihydro-8H-purine-8-one]
- inhibition at 0.1 µM: 104%
- IC50: 1 nM

Compound: COCc1ncc2c(n1)n(C)c(=O)n2C(=O)N1CC(c2ccc(OCc3ccccc3)cc2)C1 [Example 456, 7-({3-[4-(Benzyloxy)phenyl]azetidin-1-yl}carbonyl)-2-(methoxymethyl)-9-methyl-7,9-dihydro-8H-purine-8-one]
- inhibition at 0.1 µM: 99%
- IC50: 1 nM

Compound: COCc1ncc2c(n1)n(C)c(=O)n2C(=O)N1CC(c2ccc(OC(F)(F)F)cc2)C1 [Example 458, 2-(Methoxymethyl)-9-methyl-7-({3-[4-(trifluoromethoxy)phenyl]azetidin-1-yl}carbonyl)-7,9-dihydro-8H-purine-8-one]
- inhibition at 0.1 µM: 120%
- IC50: 1 nM

Compound: CCOCc1ncc2c(n1)n(C)c(=O)n2C(=O)N1CC(c2ccccc2)C1 [Example 460, 2-(Ethoxymethyl)-9-methyl-7-[(3-phenylazetidin-1-yl)carbonyl]-7,9-dihydro-8H-purine-8-one]
- inhibition at 0.1 µM: 108%
- IC50: 11 nM

Compound: CCOCc1ncc2c(n1)n(C)c(=O)n2C(=O)N1CC(c2ccc(OCC)cc2)C1 [Example 463, 2-(Ethoxymethyl)-7-{[3-(4-ethoxyphenyl)azetidin-1-yl]carbonyl}-9-methyl-7,9-dihydro-8H-purine-8-one]
- inhibition at 0.1 µM: 136%
- IC50: 10 nM

Compound: CCOCc1ncc2c(n1)n(C)c(=O)n2C(=O)N1CC(c2ccccc2F)C1 [Example 465, 2-(Ethoxymethyl)-7-{[3-(2-fluorophenyl)azetidin-1-yl]carbonyl}-9-methyl-7,9-dihydro-8H-purine-8-one]
- inhibition at 0.1 µM: 96%
- IC50: 10 nM

Compound: COCc1ncc2c(n1)n(C)c(=O)n2C(=O)N1CC[C@@H](Oc2ccccc2C)C1 [Example 476]
- inhibition at 0.1 µM: 76%
- IC50: 57 nM

Compound: COCc1ncc2c(n1)n(C)c(=O)n2C(=O)N1CC(Oc2ccccc2C)C1 [Example 478]
- inhibition at 0.1 µM: 46%
- IC50: 118 nM

Compound: COCc1ncc2c(n1)n(C)c(=O)n2C(=O)N1CC[C@@H](Oc2ccc(F)cc2)C1 [Example 480, 7-{[(3R)-3-(4-Fluorophenoxy)pyrrolidin-1-yl]carbonyl}-2-(methoxymethyl)-9-methyl-7,9-dihydro-8H-purine-8-one]
- inhibition at 0.1 µM: 88%
- IC50: 83 nM

Compound: COCc1ncc2c(n1)n(C)c(=O)n2C(=O)N1CC[C@H](Oc2ccc(F)cc2)C1 [Example 481]
- inhibition at 0.1 µM: 102%
- IC50: 3 nM

Source: US8735406B2, “8-oxodihydropurine derivative” (Dainippon Sumitomo Pharma Co., Ltd., priority 2009, dated 2014)
